Tests used:
Human VAP-1 enzyme = target: T1, Human VAP-1 enzyme (Homo sapiens, UniProt Q16853); assay: Human VAP-1 enzyme inhibition test; format: biochemical; settings: compound 30 nM; 14C-benzylamine 100 μM, 37° C., 1 hour; read-out: inhibition ratio
T1 construct: purchased R&D Systems, Inc
T1 sequence (Q16853 27-763 limits assumed): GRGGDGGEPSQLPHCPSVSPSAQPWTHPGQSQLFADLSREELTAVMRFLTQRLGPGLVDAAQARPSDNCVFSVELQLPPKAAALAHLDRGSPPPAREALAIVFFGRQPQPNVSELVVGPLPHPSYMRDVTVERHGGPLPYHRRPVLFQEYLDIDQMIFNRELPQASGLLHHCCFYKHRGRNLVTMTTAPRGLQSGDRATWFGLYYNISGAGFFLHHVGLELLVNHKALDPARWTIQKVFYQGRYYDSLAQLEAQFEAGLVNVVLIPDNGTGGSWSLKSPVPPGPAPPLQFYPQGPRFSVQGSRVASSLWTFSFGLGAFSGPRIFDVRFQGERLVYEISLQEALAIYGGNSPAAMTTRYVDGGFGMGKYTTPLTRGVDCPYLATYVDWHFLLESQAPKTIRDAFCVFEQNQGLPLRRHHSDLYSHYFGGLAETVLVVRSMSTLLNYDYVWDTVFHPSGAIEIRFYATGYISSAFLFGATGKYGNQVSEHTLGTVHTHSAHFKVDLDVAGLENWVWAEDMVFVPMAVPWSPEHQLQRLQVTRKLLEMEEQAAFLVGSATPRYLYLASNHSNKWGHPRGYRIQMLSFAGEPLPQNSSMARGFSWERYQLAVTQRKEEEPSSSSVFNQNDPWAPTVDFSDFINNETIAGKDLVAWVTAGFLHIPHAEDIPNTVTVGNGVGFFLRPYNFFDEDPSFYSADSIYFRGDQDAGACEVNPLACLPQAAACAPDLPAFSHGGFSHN
Protocol: Human VAP-1 Enzyme Inhibition Test
This test was conducted by modifying the method of P. H. Yu et al. (Diabetologia 40 1243 (1997)). Human VAP-1 enzyme (R&D Systems, Inc.) was pre-incubated in a 96-well plate with the compound dissolved in dimethylsulfoxide at room temperature for 20 minutes. Next, in a solution to the final volume of 200 μL, the enzyme reaction solution was incubated with ^14C-benzylamine (final concentration 100 μM) at 37° C. for 1 hour. The reaction was terminated by the addition of 100 μL of 2 M citric acid solution to the reaction solution. The oxidative product was extracted using a toluene/ethyl acetate mixture and the radioactivity was measured with a liquid scintillation counter. The inhibition ratio of the compound was calculated using the following equation. Inhibition ratio={1−[VAP-1 enzyme activity after treatment with the compound]/[VAP-1 enzyme activity in the presence of dimethylsulfoxide alone without the compound]}×100 [Math. 1]

rat plasma VAP-1 = target: T2, rat plasma VAP-1 (Rattus norvegicus, UniProt O08590); assay: (Ex vivo) rat plasma VAP-1 inhibition test after oral administration of the compound; format: in vivo; settings: 3 hours after oral administration, SD male rats, non-fasting, read-out: inhibition ratio (plasma VAP-1 activity)
T2 construct: The blood was centrifuged at 14000 rpm for 10 minutes to get plasma; from tissue; host or cells: plasma of SD male rats (ex vivo, after oral dosing)
T2 sequence (O08590 28-763 limits assumed): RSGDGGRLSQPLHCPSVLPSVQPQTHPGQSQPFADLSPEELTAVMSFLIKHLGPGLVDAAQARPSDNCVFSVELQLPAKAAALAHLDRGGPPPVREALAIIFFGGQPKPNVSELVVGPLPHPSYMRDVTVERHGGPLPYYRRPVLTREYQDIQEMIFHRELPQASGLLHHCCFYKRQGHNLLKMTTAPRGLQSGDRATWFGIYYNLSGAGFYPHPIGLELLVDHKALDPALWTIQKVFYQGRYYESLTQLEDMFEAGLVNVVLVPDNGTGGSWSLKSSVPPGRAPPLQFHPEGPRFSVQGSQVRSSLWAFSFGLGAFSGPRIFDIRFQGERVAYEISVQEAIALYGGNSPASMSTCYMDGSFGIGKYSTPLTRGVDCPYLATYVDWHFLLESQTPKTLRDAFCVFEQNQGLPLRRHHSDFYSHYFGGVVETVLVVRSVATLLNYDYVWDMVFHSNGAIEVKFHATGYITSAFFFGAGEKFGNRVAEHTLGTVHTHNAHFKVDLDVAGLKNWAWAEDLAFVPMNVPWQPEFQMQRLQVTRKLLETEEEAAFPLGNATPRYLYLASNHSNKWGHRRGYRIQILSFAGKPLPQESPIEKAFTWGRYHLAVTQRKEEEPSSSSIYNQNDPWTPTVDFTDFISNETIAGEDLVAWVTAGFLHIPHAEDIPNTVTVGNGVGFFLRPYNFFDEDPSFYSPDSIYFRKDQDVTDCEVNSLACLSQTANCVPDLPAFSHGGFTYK
Protocol: (Ex Vivo) Rat Plasma VAP-1 Inhibition Test after Oral Administration of the Compound
The compound was orally administered (0.3-10 mg/kg) to 7-12 week old SD male rats in the non-fasting state. Under anesthesia, the blood was collected in heparin tubes from the jugular vein before the administration and 3, 8 and 24 hours after the administration. The blood was centrifuged at 14000 rpm for 10 minutes to get plasma. The VAP-1 enzyme activity in the plasma was measured by radiochemical enzyme assay.
The radiochemical enzyme assay was conducted by modifying the method of P. H. Yu et al. (Diabetologia 40 1243 (1997)). ^14C-benzylamine (2.5 μM) was added to the obtained plasma, and was incubated at 37° C. for 3 hours. The reaction was terminated by the addition of 100 μL of 2 M citric acid solution to the reaction solution. The oxidative product was extracted using a toluene/ethyl acetate mixture and the radioactivity was measured with a liquid scintillation counter. The inhibition ratio of the compound was calculated using the following equation. Inhibition ratio={1−[Plasma VAP-1 activity after administration of the compound]/[Plasma VAP-1 activity before administration]}×100 [Math. 4]

[1] = Rat pharmacokinetic (PK) study (concentration of compound in plasma after oral administration); format: in vivo, SD rats; settings: dose 3 mg/kg
Protocol: Rat Pharmacokinetic (PK) Study (Concentration of Compound in Plasma after Oral Administration)
Seven to eight week old SD rats (weighing 180 to 250 g) were orally administered with a suspension of the compound in 0.5 W/V % methylcellulose 400 solution. Under anesthesia, the blood was collected from the jugular vein in EDTA tubes at 0.25, 0.5, 1, 2, 4, 6, 8 and 24 hours after the administration of the compound. The blood was centrifuged at 4° C. and 6000 g for 3 minutes to give plasma. Acetonitrile was added to the plasma, and the mixture was stirred with a shaker at 750 rpm for 3 minutes and was deproteinized by centrifugation at 3700 rpm for 2 minutes. The obtained sample was analyzed by LC/MS under the following conditions.
The concentration of the compound in the plasma at each blood sampling time was determined by an internal standard method, and AUC all (Area Under Curve) was calculated by a trapezoidal method.
The following LC and MS systems were used for measurement.
LC: CBM 30 series manufactured by Shimadzu Corporation
Column: Phenomenex Kinetex C18 (50×2.1 mm, 2.6 μm)
Column temperature: 40° C.
Mobile phase A: 0.1% aqueous formic acid solution, mobile phase B: 0.1% formic acid, 50% acetonitrile/methanol mixture
MS: 3200 manufactured by SCIEX

Row | inhibition at 0.03 µM (Human VAP-1 enzyme) [%] | inhibition in vivo at 0.3 mg/kg (rat plasma VAP-1) [%] | amount of metabolites found in the blood [1] | Structure (SMILES)
1 | ≥ 50 | ≥ 50 |  | COC1CN(c2ncc(-c3cccc(COC(=O)NC(=N)N)c3F)cc2F)C1 [Example 1, 2-Fluoro-3-[5-fluoro-6-(3-methoxyazetidin-1-yl)pyridin-3-yl]benzyl carbamimidoylcarbamate]
2 | ≥ 50 | ≥ 50 |  | [2H]C([2H])([2H])OC1CN(c2ncc(-c3cccc(COC(=O)NC(=N)N)c3F)cc2F)C1 [Example 2, 2-Fluoro-3-{5-fluoro-6-[3-(methoxy-d3)azetidin-1-yl]pyridin-3-yl}benzyl carbamimidoylcarbamate]
3 | ≥ 50 | ≥ 50 |  | CCOC1CN(c2ncc(-c3cccc(COC(=O)NC(=N)N)c3F)cc2F)C1 [Example 3, 3-[6-(3-Ethoxyazetidin-1-yl)-5-fluoropyridin-3-yl]-2-fluorobenzyl carbamimidoylcarbamate]
4 | ≥ 50 | ≥ 50 |  | N=C(N)NC(=O)OCc1cccc(-c2cnc(N3CC(OCCF)C3)c(F)c2)c1F [Example 4, 2-Fluoro-3-{5-fluoro-6-[3-(2-fluoroethoxy)azetidin-1-yl]pyridin-3-yl}benzyl carbamimidoylcarbamate]
5 | ≥ 50 | ≥ 50 |  | CC(C)OC1CN(c2ncc(-c3cccc(COC(=O)NC(=N)N)c3F)cc2F)C1 [Example 6, 2-Fluoro-3-[5-fluoro-6-(3-isopropoxyazetidin-1-yl)pyridin-3-yl]benzyl carbamimidoylcarbamate]
6 | ≥ 50 | ≥ 50 | small | N=C(N)NC(=O)OCc1cccc(-c2cnc(N3CC(O)C3)c(F)c2)c1F [Example 8, 2-Fluoro-3-[5-fluoro-6-(3-hydroxyazetidin-1-yl)pyridin-3-yl]benzyl carbamimidoylcarbamate]
7 | ≥ 50 | ≥ 50 |  | N=C(N)NC(=O)OCc1cccc(-c2cnc(N3CCC3)c(F)c2)c1F [Example 9, 3-[6-(Azetidin-1-yl)-5-fluoropyridin-3-yl]-2-fluorobenzyl carbamimidoylcarbamate]
8 | ≥ 50 | ≥ 50 |  | N=C(N)NC(=O)OCc1cccc(-c2cnc(N3CC(F)C3)c(F)c2)c1F [Example 10, 2-Fluoro-3-[5-fluoro-6-(3-fluoroazetidin-1-yl)pyridin-3-yl]benzyl carbamimidoylcarbamate]
9 | ≥ 50 | ≥ 50 |  | N=C(N)NC(=O)OCc1cccc(-c2cnc(N3CC(F)(F)C3)c(F)c2)c1F [Example 11, 3-[6-(3,3-Difluoroazetidin-1-yl)-5-fluoropyridin-3-yl]-2-fluorobenzyl carbamimidoylcarbamate]
10 | ≥ 50 | ≥ 50 |  | CC1CN(c2ncc(-c3cccc(COC(=O)NC(=N)N)c3F)cc2F)C1 [Example 12, 2-Fluoro-3-[5-fluoro-6-(3-methylazetidin-1-yl)pyridin-3-yl]benzyl carbamimidoylcarbamate]
11 | ≥ 50 | ≥ 50 |  | CC1(C)CN(c2ncc(-c3cccc(COC(=O)NC(=N)N)c3F)cc2F)C1 [Example 13, 3-[6-(3,3-Dimethylazetidin-1-yl)-5-fluoropyridin-3-yl]-2-fluorobenzyl carbamimidoylcarbamate]
12 | ≥ 50 | ≥ 50 | small | CC1(O)CN(c2ncc(-c3cccc(COC(=O)NC(=N)N)c3F)cc2F)C1 [Example 15, 2-Fluoro-3-[5-fluoro-6-(3-hydroxy-3-methylazetidin-1-yl)pyridin-3-yl]benzyl carbamimidoylcarbamate]

Row | Structure (SMILES) | inhibition at 0.03 µM (Human VAP-1 enzyme) [%] | inhibition in vivo at 0.3 mg/kg (rat plasma VAP-1) [%] | amount of metabolites found in the blood [1]
13 | N=C(N)NC(=O)OCc1cccc(-c2cnc(N3CC4(COC4)C3)c(F)c2)c1F [Example 16, 2-Fluoro-3-[5-fluoro-6-(2-oxa-6-azaspiro[3.3]heptan-6-yl)pyridin-3-yl]benzyl carbamimidoylcarbamate] | ≥ 50 | ≥ 50 | small

— US11814393B2, “Substituted guanidine compounds” (UBE CORPORATION, priority 2016, dated 2023)
